Measured values reported in patent US5087440A, “Heterocyclic derivatives of DTPA used for magnetic resonance imaging” (Salutar, Inc., priority 1990, dated 1992).

Legend:
Swiss Webster mice = experiment: Acute toxicity (LD50), iv administration to mice; format: in vivo; conditions: 500 mM Gd chelate alone or with 25 mM added Ca chelate
Experimental: Acute toxicity (LD50) values were determined for compositions comprising 500 mM Gd DTPA-APD alone or together with 25 mM of the calcium chelate of DTPA-APD and, for further comparison, for compositions comprising 500 mM Gd DTPA-dimeglumine alone or together with 25 mM of a calcium chelate of DTPA or a DTPA-bisamide (the bismethylamide. The acute toxicities were determined by iv administrations of the compositions to Swiss Webster mice.

[1] = iv administration; AU-81889/87; cited from earlier work

For `CNC[C@H](O)[C@@H](O)[C@H](O)[C@H](O)CO.CNC[C@H](O)[C@@H](O)[C@H](O)[C@H](O)CO.O=C([O-])CN(CCN(CC(=O)[O-])CC(=O)O)CCN(CC(=O)[O-])CC(=O)O.[Gd+3]` [Gd DTPA], the “LD50 (iv mice)” value (Swiss Webster mice) is listed as 5.5 mmol/kg and the “gadolinium retention (in words)” value [1] is listed as “gadolinium retention following iv administration”.
